Series [1] can be described thus: Clearance study, liver microsomes (rats). To be noted: rat, pH 7.4. Background: Liver microsomes are a subcellular fraction often used to study metabolism.
Series [2] in a line: Clearance study, liver microsomes (mice). To be noted: mouse, pH 7.4.
Series [3] is described as follows: Clearance study, liver microsomes (human). To be noted: pH 7.4.

On to `O=C(NCc1ccccc1)c1ccc2c(c1)N=C(c1cccc(Br)c1)c1ccccc1S2`, for which the microsomal CLint at 1 μM is 69 µL/min/mg in series [1], 566 µL/min/mg in series [2] and 4 µL/min/mg in series [3].

With `CCCCNC(=O)c1ccc2c(c1)N=C(c1ccc(Br)cn1)c1ccccc1S2` [drawing 1654], the microsomal CLint at 1 μM in series [1] amounted to 299 µL/min/mg; in series [2], 348 µL/min/mg; in series [3], 63 µL/min/mg.

With `O=C(NCc1ccco1)c1ccc2c(c1)N=C(c1ccc(Cl)s1)c1ccccc1S2` [drawing 1656], the intrinsic clearance (microsomal CLint) at 1 μM is 98 µL/min/mg in series [1], 127 µL/min/mg in series [2] and 42 µL/min/mg in series [3].

Consider `O=C(NCc1cccs1)c1ccc2c(c1)N=C(c1cccc(F)c1)c1ccccc1S2` [drawing 1658], for which the microsomal CLint at 1 μM was determined as 166 µL/min/mg in series [1], 238 µL/min/mg in series [2] and 56 µL/min/mg in series [3].

For the compound `O=C(NCc1cccs1)c1ccc2c(c1)N=C(c1ccc(F)cc1)c1ccccc1S2` [drawing 1659], the results for the microsomal CLint at 1 μM in series [1], in series [2] and in series [3] were 171 µL/min/mg, 171 µL/min/mg and 52 µL/min/mg, respectively.

With `CCCCNC(=O)c1ccc2c(c1)N=C(c1ccc(Cl)cc1)c1ccccc1S2` [drawing 1661], the microsomal CLint at 1 μM in series [2] is 99 µL/min/mg.

For the compound `O=C(NCc1cccnc1)c1ccc2c(c1)N=C(c1ccc(Cl)c(Cl)c1)c1ccccc1S2` [drawing 1664], the microsomal CLint at 1 μM is 33 µL/min/mg in series [1], 38 µL/min/mg in series [2] and 19 µL/min/mg in series [3].

For `CC(C)CCNC(=O)c1ccc2c(c1)N=C(c1cccc(Cl)c1)c1ccccc1S2` [drawing 1665], the results for the microsomal CLint at 1 μM in series [1], in series [2] and in series [3] were 77 µL/min/mg, 249 µL/min/mg and 25 µL/min/mg, respectively.

Take `O=C(NCc1ccco1)c1ccc2c(c1)N=C(c1ccc(Cl)c(Cl)c1)c1ccccc1S2` [drawing 1666]: the figures for the microsomal CLint at 1 μM in series [1], in series [2] and in series [3] were 25 µL/min/mg, 27 µL/min/mg and 21 µL/min/mg, respectively.

Take `O=C(NCCc1cccnc1)c1ccc2c(c1)N=C(c1ccc(Cl)c(Cl)c1)c1ccccc1S2` [drawing 1668]: the microsomal CLint at 1 μM in series [1] is 65 µL/min/mg; in series [2], 82 µL/min/mg; in series [3] it was 41 µL/min/mg.

For the compound `CCCCNC(=O)c1ccc2c(c1)N=C(c1ccc(Cl)s1)c1ccccc1S2` [drawing 1669], the microsomal CLint at 1 μM in series [1] came out at 80 µL/min/mg; in series [2], 266 µL/min/mg; in series [3], 32 µL/min/mg.

In the case of `O=C(NCc1cccc(Cl)c1)c1ccc2c(c1)N=C(c1ccc(F)cc1)c1ccccc1S2(=O)=O` [drawing 1670], the microsomal CLint at 1 μM in series [1] stood at 31 µL/min/mg; in series [2], 32 µL/min/mg; in series [3], 32 µL/min/mg.

Consider `CC(C)CNC(=O)c1ccc2c(c1)N=C(c1ccc(Cl)c(Cl)c1)c1ccccc1S2` [drawing 1671], for which the microsomal CLint at 1 μM came to 26 µL/min/mg in series [1], 107 µL/min/mg in series [2] and 4 µL/min/mg in series [3].

Consider `CCCCNC(=O)c1cc2c(cc1O)Sc1ccccc1C(c1ccc(Cl)cc1)=N2` [drawing 1672], for which the figures for the microsomal CLint at 1 μM in series [1] and in series [2] were 7 µL/min/mg and 12 µL/min/mg, respectively.

Take `O=C(NCc1ccccc1Cl)c1ccc2c(c1)N=C(c1cccc(Cl)c1)c1ccccc1S2` [drawing 1674]: the figures for the microsomal CLint at 1 μM in series [1], in series [2] and in series [3] were 48 µL/min/mg, 124 µL/min/mg and 28 µL/min/mg, respectively.

For `O=C(NC1CCCCC1)c1ccc2c(c1)N=C(c1cccc(Cl)c1)c1ccccc1S2` [drawing 1675], the microsomal CLint at 1 μM came out at 48 µL/min/mg in series [1], 58 µL/min/mg in series [2] and 12 µL/min/mg in series [3].

`O=C(NN1CCCCC1)c1ccc2c(c1)N=C(c1ccc(Cl)cc1)c1ccccc1S2` [drawing 1676]: the microsomal CLint at 1 μM came out at 60 µL/min/mg in series [1], 126 µL/min/mg in series [2] and 32 µL/min/mg in series [3].

For the compound `CC(C)CNC(=O)c1ccc2c(c1)N=C(c1ccc(Cl)cc1F)c1ccccc1S2` [drawing 1677], the microsomal CLint at 1 μM in series [1] worked out at 51 µL/min/mg; in series [2], 98 µL/min/mg; in series [3], 20 µL/min/mg.

Turning to `CC(C)CNC(=O)c1ccc2c(c1)N=C(c1ccc(Cl)s1)c1ccccc1S2` [drawing 1681], the microsomal CLint at 1 μM in series [2] stood at 412 µL/min/mg.

In the case of `O=C(NC1CCCCC1)c1ccc2c(c1)N=C(c1ccc(F)cc1)c1ccccc1S2` [drawing 1683], the intrinsic clearance (microsomal CLint) at 1 μM in series [1] is 108 µL/min/mg; in series [2], 62 µL/min/mg; in series [3], 31 µL/min/mg.

Regarding `O=C(NCc1ccco1)c1ccc2c(c1)N=C(c1cccc(Cl)c1)c1ccccc1S2` [drawing 1684], the microsomal CLint at 1 μM in series [1] worked out at 93 µL/min/mg; in series [2], 133 µL/min/mg; in series [3], 35 µL/min/mg.

In the case of `O=C(NCc1cccc(Cl)c1)c1ccc2c(c1)N=C(c1ccc(Cl)cc1)c1cc(F)ccc1S2` [drawing 1686], the values for the microsomal CLint at 1 μM in series [1], in series [2] and in series [3] were 48 µL/min/mg, 96 µL/min/mg and 3 µL/min/mg, respectively.

In the case of `O=C(NN1CCCCCC1)c1ccc2c(c1)N=C(c1ccc(Cl)s1)c1ccccc1S2` [drawing 1687], the microsomal CLint at 1 μM stood at 186 µL/min/mg in series [1], 360 µL/min/mg in series [2] and 122 µL/min/mg in series [3].

As for `O=C(NN1CCCCCC1)c1ccc2c(c1)N=C(c1cccc(Cl)c1)c1ccccc1S2` [drawing 1689], the figures for the microsomal CLint at 1 μM in series [1], in series [2] and in series [3] were 162 µL/min/mg, 124 µL/min/mg and 59 µL/min/mg, respectively.

As for `O=C(NCCc1cccnc1)c1ccc2c(c1)N=C(c1ccc(Cl)s1)c1ccccc1S2` [drawing 1690], the microsomal CLint at 1 μM came out at 96 µL/min/mg in series [1], 122 µL/min/mg in series [2] and 238 µL/min/mg in series [3].

As for `CCCNC(=O)c1ccc2c(c1)N=C(c1ccc(Cl)cc1)c1ccccc1S2` [drawing 1691], the microsomal CLint at 1 μM in series [1] was found to be 63 µL/min/mg; in series [2], 694 µL/min/mg; in series [3], 15 µL/min/mg.

As for `O=C(NN1CCCCC1)c1ccc2c(c1)N=C(C1CCCCC1)c1ccccc1S2` [drawing 1695], the microsomal CLint at 1 μM in series [2] is 349 µL/min/mg.

Turning to `CCCCNC(=O)c1ccc2c(c1)N=C(c1cccc(F)c1)c1ccccc1S2` [drawing 1700], the microsomal CLint at 1 μM in series [1] amounted to 152 µL/min/mg; in series [2], 647 µL/min/mg; in series [3] it was 65 µL/min/mg.

For `CCCCNC(=O)c1ccc2c(c1)N=C(c1ccc(Cl)cn1)c1ccccc1S2` [drawing 1704], the microsomal CLint at 1 μM is 320 µL/min/mg in series [1], 477 µL/min/mg in series [2] and 70 µL/min/mg in series [3].

Consider `CCCCNC(=O)c1ccc2c(c1)N=C(c1ccc(Cl)cc1)c1sccc1S2` [drawing 1717], for which the microsomal CLint at 1 μM in series [2] came to 79 µL/min/mg.

In the case of `CC(C)CCNC(=O)c1ccc2c(c1)N=C(c1ccccn1)c1ccccc1S2` [drawing 1784], in series [2], the microsomal CLint at 1 μM was found to be 68 µL/min/mg.

Regarding `O=C(NCc1ccc(F)cc1)c1ccc2c(c1)N=C(c1ccccc1)c1ccccc1S2` [drawing 1787], the microsomal CLint at 1 μM in series [1] was 242 µL/min/mg; in series [3], 73 µL/min/mg.

As to `O=C(NCc1ccccc1Br)c1ccc2c(c1)N=C(c1ccc(Cl)cc1)c1ccccc1S2` [drawing 1788], the microsomal CLint at 1 μM in series [1] is 36 µL/min/mg; in series [3] it was 10 µL/min/mg.

With `Cc1cccc(C2=Nc3cc(C(=O)NCc4ccc(C)o4)ccc3Sc3ccccc32)n1` [drawing 1789], the results for the microsomal CLint at 1 μM in series [1] and in series [3] were 632 µL/min/mg and 114 µL/min/mg, respectively.

As to `O=C(NCc1cccc(Cl)c1)c1ccc2c(c1)N=C(c1ccc(F)cc1)c1ccccc1[S+]2[O-]` (stereo not shown) [drawing 1790], the results for the microsomal CLint at 1 μM in series [1] and in series [3] were 76 µL/min/mg and 24 µL/min/mg, respectively.

With `O=C(NN1CCCCC1)c1ccc2c(c1)N=C(N1CCCCC1)c1ccccc1S2` [drawing 1792], the microsomal CLint at 1 μM came out at 536 µL/min/mg in series [1] and 54 µL/min/mg in series [3].

On to `CC(C)CNC(=O)c1ccc2c(c1)N=C(c1ccc(Cl)s1)c1ccc(F)cc1S2` [drawing 1793], for which the microsomal CLint at 1 μM was found to be 49 µL/min/mg in series [1] and 32 µL/min/mg in series [3].

On to `CC(C)CNC(=O)c1ccc2c(c1)N=C(c1cccc(Cl)c1)c1ccccc1S2` [drawing 1795], for which the microsomal CLint at 1 μM in series [2] stood at 69 µL/min/mg.

As for `O=C(NCc1ccc(Cl)cc1Cl)c1ccc2c(c1)N=C(c1ccc(Cl)cc1)c1ccccc1S2` [drawing 1796], the microsomal CLint at 1 μM in series [1] was 5 µL/min/mg; in series [3] it was 1 µL/min/mg.

Take `O=C(NCCc1ccc(Cl)cc1)c1ccc2c(c1)N=C(c1ccc(F)cc1)c1ccccc1S2` [drawing 1799]: the microsomal CLint at 1 μM in series [1] amounted to 208 µL/min/mg; in series [3] it was 100 µL/min/mg.

In the case of `O=C(NCc1cccc(Cl)c1)c1ccc2c(c1)N=C(N1CCC(F)(F)CC1)c1ccccc1S2` [drawing 1800], the microsomal CLint at 1 μM in series [2] is 120 µL/min/mg.

In the case of `O=C(NCCc1ccc(Cl)cc1)c1ccc2c(c1)N=C(N1CCC(F)(F)CC1)c1ccccc1S2` [drawing 1802], the intrinsic clearance (microsomal CLint) at 1 μM in series [1] was found to be 289 µL/min/mg; in series [3], 343 µL/min/mg.

On to `CC(NC(=O)c1ccc2c(c1)N=C(c1ccc(Cl)cc1)c1ccccc1S2)c1ccccc1` (stereo not shown) [drawing 1804], for which the microsomal CLint at 1 μM is 62 µL/min/mg in series [1] and 18 µL/min/mg in series [3].

`O=C(NCc1cccc(Cl)c1)c1ccc2c(c1)N=C(c1cccc(Cl)c1)c1cc(F)ccc1S2` [drawing 1805]: the microsomal CLint at 1 μM came out at 61 µL/min/mg in series [1] and 10 µL/min/mg in series [3].

Turning to `CC(C)CNC(=O)c1ccc2c(c1)N=C(c1ccc(Cl)cn1)c1ccc(Cl)cc1S2` [drawing 1806], the values for the microsomal CLint at 1 μM in series [1] and in series [3] were 135 µL/min/mg and 13 µL/min/mg, respectively.

As to `O=C(NCCc1ccc(Cl)cc1)c1ccc2c(c1)N=C(c1ccc(Cl)cc1)c1ccccc1S2` [drawing 1807], the microsomal CLint at 1 μM in series [1] is 122 µL/min/mg; in series [3], 54 µL/min/mg.

In the case of `Cc1ccc(N2CCN(C(=O)c3ccc4c(c3)N=C(c3ccc(Cl)cc3)c3ccccc3S4)CC2)c(C)c1` [drawing 1808], the microsomal CLint at 1 μM worked out at 39 µL/min/mg in series [1] and 37 µL/min/mg in series [3].

As usually defined, the microsomal CLint is a measure of how fast metabolising enzymes remove a compound, apart from limits set by blood flow.

(Values after patent US20080090805A1, “CB-1 MODULATING COMPOUNDS AND THEIR USE” (ACADIA PHARMACEUTICALS INC., priority 2005, published 2008).)
